{
  "source": "paper PMC7296983",
  "about": "(Journal of medicinal chemistry, 2019)",
  "molecules": {"B1": {"name": "NNMT (Homo sapiens) (protein)", "chain": "MESGFTSKDTYLSHFNPRDYLEKYYKFGSRHSAESQILKHLLKNLFKIFCLDGVKGDLLIDIGSGPTIYQLLSACESFKEIVVTDYSDQNLQELEKWLKKEPEAFDWSPVVTYVCDLEGNRVKGPEKEEKLRQAVKQVLKCDVTQSQPLGAVPLPPADCVLSTLCLDAACPDLPTYCRALRNLGSLLKPGGFLVIMDALKSSYYMIGEQKFSSLPLGREAVEAAVKEAGYTIEWFEVISQSYSSTMANNEGLFSLVARKLSRPL"}},
  "key": {"NNMT [1]": {"test_system": "NNMT", "conditions": "cited from earlier work"}, "HCT116": {"test_system": "HCT116", "assay_type": "in vitro ADME", "conditions": "human, 100 μM"}, "NNMT [2]": {"molecular_target": "T1, NNMT (Homo sapiens, UniProt P40261)", "T1 sequence (P40261 1-264)": "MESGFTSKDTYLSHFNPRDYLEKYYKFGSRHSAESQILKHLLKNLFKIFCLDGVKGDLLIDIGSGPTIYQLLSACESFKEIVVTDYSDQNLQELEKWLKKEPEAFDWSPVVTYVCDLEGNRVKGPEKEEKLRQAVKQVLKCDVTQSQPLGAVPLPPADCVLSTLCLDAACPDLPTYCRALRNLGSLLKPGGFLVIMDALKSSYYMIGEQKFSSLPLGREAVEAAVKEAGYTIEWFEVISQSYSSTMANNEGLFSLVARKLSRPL", "experiment": "SAH hydrolase", "assay_type": "biochemical", "conditions": "for activity compared to respective parent compound 1g, 1h and 3a: aspartic replaced by glutamic amino acid portion"}, "PRMT1": {"molecular_target": "PRMT1 (Homo sapiens, UniProt Q99873)", "sequence (Q99873 whole entry, species assumed)": "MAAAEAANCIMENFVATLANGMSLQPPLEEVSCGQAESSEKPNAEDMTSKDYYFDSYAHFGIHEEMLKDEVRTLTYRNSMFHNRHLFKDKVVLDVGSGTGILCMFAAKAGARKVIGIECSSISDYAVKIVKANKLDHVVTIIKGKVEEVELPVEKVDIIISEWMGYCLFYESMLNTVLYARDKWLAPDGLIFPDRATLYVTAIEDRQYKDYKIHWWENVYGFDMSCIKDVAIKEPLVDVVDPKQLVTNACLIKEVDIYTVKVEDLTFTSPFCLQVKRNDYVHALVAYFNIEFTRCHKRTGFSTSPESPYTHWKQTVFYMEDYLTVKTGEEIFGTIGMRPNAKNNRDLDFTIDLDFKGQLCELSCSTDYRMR", "experiment": "Selectivity assay, SAHH-coupled fluorescence", "assay_type": "biochemical"}, "TbPRMT7": {"molecular_target": "TbPRMT7 (Trypanosoma brucei brucei, UniProt Q582G4)", "sequence (Q582G4 whole entry)": "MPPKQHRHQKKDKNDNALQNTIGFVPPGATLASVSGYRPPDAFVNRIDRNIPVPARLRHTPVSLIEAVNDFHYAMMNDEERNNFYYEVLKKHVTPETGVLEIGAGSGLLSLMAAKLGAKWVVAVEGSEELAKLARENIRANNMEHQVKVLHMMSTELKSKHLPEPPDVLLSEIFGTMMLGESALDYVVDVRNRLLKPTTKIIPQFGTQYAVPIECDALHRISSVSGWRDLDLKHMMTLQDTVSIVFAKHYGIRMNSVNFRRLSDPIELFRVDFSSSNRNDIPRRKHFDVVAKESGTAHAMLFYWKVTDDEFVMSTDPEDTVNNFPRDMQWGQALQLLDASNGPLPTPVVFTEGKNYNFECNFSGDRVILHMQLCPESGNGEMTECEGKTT", "experiment": "biochemical"}, "NTMT1": {"molecular_target": "T2, NTMT1 (Homo sapiens, UniProt Q9BV86)", "T2 sequence (Q9BV86 1-223)": "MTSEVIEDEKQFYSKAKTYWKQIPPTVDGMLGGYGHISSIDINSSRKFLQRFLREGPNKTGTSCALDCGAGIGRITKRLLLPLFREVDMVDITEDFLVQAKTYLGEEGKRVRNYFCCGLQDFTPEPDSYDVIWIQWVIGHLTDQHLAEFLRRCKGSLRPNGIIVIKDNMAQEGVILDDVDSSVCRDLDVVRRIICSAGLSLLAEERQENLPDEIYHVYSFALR", "experiment": "Selectivity assay, SAHH-coupled fluorescence", "assay_type": "biochemical", "conditions": "read-out: Enzyme activity (%)"}, "NNMT [3]": {"test_system": "NNMT", "conditions": "cited from earlier work", "remark": "listed apart in the source"}, "NNMT [4]": {"molecular_target": "NNMT", "conditions": "cited from earlier work", "remark": "listed apart in the source"}, "SAH hydrolase": {"substrate": "C[S+](CC[C@H](N)C(=O)[O-])C[C@H]1O[C@@H](n2cnc3c(N)ncnc32)[C@H](O)[C@@H]1O", "experiment": "SAH hydrolase", "assay_type": "biochemical, human", "conditions": "other: substrate and cofactor, Figure S1; pH 7.5; 37.0 °C"}, "[5]": {"substrate": "NC(=O)c1cccnc1", "experiment": "purified protein, by the assay type", "conditions": "other: substrate and cofactor, Figure S1; pH 7.5; 37.0 °C"}},
  "data": [
    {"molecule": "Cc1ccncc1C(N)=O", "note": "[4-methylnicotinamide]", "values": [
      {"measurement": "Km relative to nicotinamide", "setting": "NNMT [1]", "result": "comparable to nicotinamide"}
    ]},
    {"molecule": "NC(=O)c1cccc(CCCN(CC[C@H](N)C(=O)O)C[C@H]2O[C@@H](n3cnc4c(N)ncnc43)[C@H](O)[C@@H]2O)c1", "note": "[Compound 1a]", "values": [
      {"measurement": "cell permeability (MS detection of cellular levels)", "setting": "HCT116", "result": "barely exhibited enhanced cell permeability"}
    ]},
    {"molecule": "Cc1ccc(C(N)=O)cc1CCCN(CC[C@H](N)C(=O)O)C[C@H]1O[C@@H](n2cnc3c(N)ncnc32)[C@H](O)[C@@H]1O", "note": "[Compound 1b, (S)-2-amino-4-((((2R,3S,4R,5R)-5-(6-amino-9H-purin-9-yl)-3,4dihydroxytetrahydrofuran-2-yl)methyl)(3-(5-carbamoyl-2methylphenyl)propyl)amino)butanoic acid]", "values": [
      {"measurement": "decrease of inhibitory activity compared with 1a", "setting": "NNMT [2]", "result": "more than 3 fold"}
    ]},
    {"molecule": "Cc1ccc(CCCN(CC[C@H](N)C(=O)O)C[C@H]2O[C@@H](n3cnc4c(N)ncnc43)[C@H](O)[C@@H]2O)cc1C(N)=O", "note": "[Compound 1c, (S)-2-amino-4-((((2R,3S,4R,5R)-5-(6-amino-9H-purin-9-yl)-3,4dihydroxytetrahydrofuran-2-yl)methyl)(3-(3-carbamoyl-4methylphenyl)propyl)amino)butanoic acid]", "values": [
      {"measurement": "decrease of inhibitory activity compared with 1a", "setting": "NNMT [2]", "result": "marginally affected the inhibition"}
    ]},
    {"molecule": "NC(=O)c1cccc(CCCN(CCC[C@H](N)C(=O)O)C[C@H]2O[C@@H](n3cnc4c(N)ncnc43)[C@H](O)[C@@H]2O)c1", "note": "[Compound 1d, (S)-2-amino-5-((((2R,3S,4R,5R)-5-(6-amino-9H-purin-9-yl)-3,4-dihydroxytetrahydrofuran-2-yl)methyl)(3-(3-arbamoylphenyl)propyl)amino)pentanoic acid]", "values": [
      {"measurement": "decrease of inhibitory activity compared with 1a", "setting": "NNMT [2]", "result": 70, "unit": "fold"}
    ]},
    {"molecule": "Nc1ncnc2c1ncn2[C@@H]1O[C@H](CN(CCCc2cccc3ccccc23)CCC[C@H](N)C(=O)O)[C@@H](O)[C@H]1O", "note": "[Compound 1e, (S)-2-amino-5-((((2R,3S,4R,5R)-5-(6-amino-9H-purin-9-yl)-3,4-dihydroxytetrahydrofuran-2-yl)methyl)(3-(naphthalen-1-yl)propyl)amino)pentanoic acid]", "values": [
      {"measurement": "activity compared to respective parent compound 1g, 1h and 3a", "setting": "NNMT [2]", "result": "either comparable or 3-fold decreased activities"}
    ]},
    {"molecule": "Nc1ncnc2c1ncn2[C@@H]1O[C@H](CN(CCCc2ccc3ccccc3c2)CCC[C@H](N)C(=O)O)[C@@H](O)[C@H]1O", "note": "[Compound 1f, (S)-2-amino-5-((((2R,3S,4R,5R)-5-(6-amino-9H-purin-9-yl)-3,4-dihydroxytetrahydrofuran-2-yl)methyl)(3-(naphthalen-2-yl)propyl)amino)pentanoic acid]", "values": [
      {"measurement": "activity compared to respective parent compound 1g, 1h and 3a", "setting": "NNMT [2]", "result": "either comparable or 3-fold decreased activities"}
    ]},
    {"molecule": "COC(=O)c1cccc(CCCN(CC[C@H](N)C(=O)O)C[C@H]2O[C@@H](n3cnc4c(N)ncnc43)[C@H](O)[C@@H]2O)c1", "note": "[Compound 1j, (S)-2-amino-4-((((2R,3S,4R,5R)-5-(6-amino-9H-purin-9-yl)-3,4-dihydroxytetrahydrofuran-2-yl)methyl)(3-(3-(methoxycarbonyl)phenyl)propyl)amino)butanoic acid]", "values": [
      {"measurement": "decrease of inhibitory activity compared with 1a", "setting": "NNMT [2]", "result": "about 700 fold"}
    ]},
    {"molecule": "NC(=O)c1cccc(C#CCN(CC[C@H](N)C(=O)O)C[C@H]2O[C@@H](n3cnc4c(N)ncnc43)[C@H](O)[C@@H]2O)c1", "note": "[Compound 2a, (S)-2-amino-4-((((2R,3S,4R,5R)-5-(6-amino-9H-purin-9-yl)-3,4-dihydroxytetrahydrofuran-2-yl)methyl)(3-(3-carbamoylphenyl)prop-2-yn-1-yl)amino)butanoic acid]", "values": [
      {"measurement": "IC50", "setting": "PRMT1", "result": "> 100", "unit": "µM"},
      {"measurement": "IC50", "setting": "TbPRMT7", "result": "> 33", "unit": "µM"},
      {"measurement": "remaining activity at 3.7 µM", "setting": "NTMT1", "result": 64, "unit": "%"}
    ]},
    {"molecule": "NC(=O)c1cccc(C#CCN(CC[C@H](N)C(=O)O)C[C@H]2O[C@@H](n3cnc4c(N)ncnc43)[C@H](O)[C@@H]2O)c1", "note": "[Compound 2a]", "values": [
      {"measurement": "cell permeability (MS detection of cellular levels)", "setting": "HCT116", "result": "limited permeability"}
    ]},
    {"molecule": "COc1ccc(C(N)=O)cc1C#CCN(CC[C@H](N)C(=O)O)C[C@H]1O[C@@H](n2cnc3c(N)ncnc32)[C@H](O)[C@@H]1O", "note": "[Compound 2b, (S)-2-amino-4-((((2R,3S,4R,5R)-5-(6-amino-9H-purin-9-yl)-3,4-dihydroxytetrahydrofuran-2-yl)methyl)(3-(5-carbamoyl-2-methoxyphenyl)prop-2-yn-1-yl)amino)butanoic acid]", "values": [
      {"measurement": "loss of activity compared to 2a", "setting": "NNMT [2]", "result": 7, "unit": "fold"}
    ]},
    {"molecule": "Cc1ccc(C#CCN(CC[C@H](N)C(=O)O)C[C@H]2O[C@@H](n3cnc4c(N)ncnc43)[C@H](O)[C@@H]2O)cc1C(N)=O", "note": "[Compound 2c, (S)-2-amino-4-((((2R,3S,4R,5R)-5-(6-amino-9H-purin-9-yl)-3,4-dihydroxytetrahydrofuran-2-yl)methyl)(3-(3-carbamoyl-4-methylphenyl)prop-2-yn-1-yl)amino)butanoic acid]", "values": [
      {"measurement": "loss of activity compared to 2a", "setting": "NNMT [2]", "result": "comparable activity"}
    ]},
    {"molecule": "NC(=O)c1cccc(C#CCNC[C@H]2O[C@@H](n3cnc4c(N)ncnc43)[C@H](O)[C@@H]2O)c1", "note": "[Compound 2d, 3-(3-((((2R,3S,4R,5R)-5-(6-amino-9H-purin-9-yl)-3,4-dihydroxytetrahydrofuran-2-yl)methyl)amino)prop-1-yn-1-yl)benzamide]", "values": [
      {"measurement": "loss of activity compared to 2a", "setting": "NNMT [2]", "result": "~500", "unit": "fold"}
    ]},
    {"molecule": "NC(=O)c1cccc(CCCCN(CCC[C@H](N)C(=O)O)C[C@H]2O[C@@H](n3cnc4c(N)ncnc43)[C@H](O)[C@@H]2O)c1", "note": "[Compound 3b, (S)-2-amino-5-((((2R,3S,4R,5R)-5-(6-amino-9H-purin-9-yl)-3,4-dihydroxytetrahydrofuran-2-yl)methyl)(4-(3-carbamoylphenyl)butyl)amino)pentanoic acid]", "values": [
      {"measurement": "activity compared to respective parent compound 1g, 1h and 3a", "setting": "NNMT [2]", "result": "either comparable or 3-fold decreased activities"}
    ]},
    {"molecule": "NC(=O)c1cccc(CCN(CCC[C@H](N)C(=O)O)C[C@H]2O[C@@H](n3cnc4c(N)ncnc43)[C@H](O)[C@@H]2O)c1", "note": "[MS2734]", "values": [
      {"measurement": "fold higher inhibitory activity than MS 2756", "setting": "NNMT [3]; aspartic amino acid replaced with glutamic acid in the SAM portion", "result": "over 10 fold"},
      {"measurement": "activity of previously reported bisubstrate analogs", "setting": "NNMT [3]", "result": "moderate activities at μM range"}
    ]},
    {"molecule": "NC(=O)c1cccc(CCN(CC[C@H](N)C(=O)O)C[C@H]2O[C@@H](n3cnc4c(N)ncnc43)[C@H](O)[C@@H]2O)c1", "note": "[MS2756]", "values": [
      {"measurement": "activity of previously reported bisubstrate analogs", "setting": "NNMT [3]", "result": "moderate activities at μM range"}
    ]},
    {"molecule": "NC(=O)c1cccc(C#C[C@@H](CC[C@H](N)C(=O)O)C[C@H]2O[C@@H](n3cnc4c(N)ncnc43)[C@H](O)[C@@H]2O)c1", "note": "[NS1]", "values": [
      {"measurement": "Ki", "setting": "NNMT [4]", "result": "~0.0005", "unit": "µM"}
    ]},
    {"molecule": "c1ccc2ncccc2c1", "note": "[Quinoline]", "values": [
      {"measurement": "Km relative to nicotinamide", "setting": "NNMT [1]", "result": "comparable to nicotinamide"}
    ]},
    {"molecule": "c1ccc2cnccc2c1", "note": "[isoquinoline]", "values": [
      {"measurement": "Km relative to nicotinamide", "setting": "NNMT [1]", "result": "~3", "unit": "fold"}
    ]},
    {"molecule": "B1", "values": [
      {"measurement": "Km", "setting": "SAH hydrolase", "result": 10, "unit": "µM"},
      {"measurement": "Km", "setting": "[5]", "result": 10, "unit": "µM"}
    ]}
  ]
}
